According to patent US20150030615A1, “BIOMARKERS FOR CANCER STEM CELLS AND RELATED METHODS OF USE” (VERASTEM, INC., priority 2012, published 2015):
Entries after “also recorded” stand apart in the source; their conditions may differ.

Tested on: tumorspheres of SUM159 cells
Assay: gene expression in sequentially passaged tumorspheres treated with chemotherapeutic agents
Assay type: cell-based, human
Details: paclitaxel-treated SUM159 tumorspheres; 11 CSC-associated genes; percentage change normalized to primary SUM159 tumorspheres (FIG. 14)

## CC(=O)O[C@H]1C(=O)[C@@]2(C)[C@H]([C@H](OC(=O)c3ccccc3)[C@]3(O)C[C@H](OC(=O)[C@H](O)[C@@H](NC(=O)c4ccccc4)c4ccccc4)C(C)=C1C3(C)C)[C@]1(OC(C)=O)CO[C@@H]1C[C@@H]2O [paclitaxel]
  expression of upregulated cancer stem cell associated genes: enhancement of the upregulation; also recorded: enhanced further
